A short description of data set [1]: Metabolic stability in dog liver microsomes. Format: in vitro ADME.
Data set [2] can be described thus: Oral pharmacokinetics in mice. The note with it: mouse, plasma, 10 mg/kg. Format: in vivo.
The next data set deals with PI3Kα (Homo sapiens, UniProt P42336). Description: Assay 1: Fluorescent (HTRF) determination of PI3 kinase enzyme activity, PI3Kα. The class given is biochemical. From the text:
(§1) Phosphoinositide 3 kinases (PI3K) belong to a class of lipid kinases that play a critical role in the regulation of several key cellular processes. The PI3K are capable of phosphorylating the 3-hydroxy position of phosphoinositols thereby generating second messengers involved in downstream signaling events. The homogenous time resolved fluorescence (HTRF) assay allows detection of 3,4,5-triphosphate (PIPS) formed as a result of phosphorylation of phosphotidylinositol 4,5-biphosphate (PIP2) by PI3K isoforms such as α, β, γ or δ.
(§2) PI3K isoform activity for α, β, γ or δ was determined using a PI3K human HTRF™ Assay Kit (Millipore, Billerica, Mass.) with modifications. All incubations were carried out at room temperature. 0.5 μl of 40× inhibitor (in 100% DMSO) or 100% DMSO were added to each well of a 384-well white plate (Greiner Bio-One, Monroe, N.C.) containing 14.5 μl 1× reaction buffer/PIP2 (10 mM MgCl2, 5 mM DTT, 1.38 μM PIP2) mix with or without enzyme, followed by 5 μl/well of 400 μM ATP and incubated for an additional 30 minutes. The reaction was terminated by adding 5 μl/well stop solution (Millipore, Billerica, Mass.). 5 μl of detection mix (Millipore, Billerica, Mass.) was then added to each well and incubated for 6-18 hours in the dark. HRTF ratio was measured on a microplate reader (BMG Labtech., Germany) at an excitation wavelength of 337 nm and emission wavelengths of 665 and 615 nm with an integration time of 400 msec counting delay of 50 msec.

Data set [3] has as its target T1, PI3Kγ (Homo sapiens, UniProt P48736). As to the kind of experiment: Assay 1: Fluorescent (HTRF) determination of PI3 kinase enzyme activity, PI3Kγ. The class given is biochemical. The note with it: read-out: IC50 (nM) PI3Kγ.
Description: as §1, §2

The next data set concerns the target T2, PI3K beta (Mus musculus, UniProt Q8BTI9).
T2 construct: endogenous in cells; host or cells: 3T3 fibroblasts
As to the kind of experiment: Assay 4A2: LPA induced AktS473 phosphorylation in 3T3 fibroblasts. Format: cell-based. The note with it: LPA 5 μM, read-out: Cellular IC50 PI3K beta (LPA induced pAKT in 3T3 fibroblasts). How it is done: The objective of this study was to determine the effect of Compound A1 on PI3Kβ kinase mediated LPA induced AktS473 phosphorylation in 3T3 fibroblasts.
3T3 cells were treated with desired concentrations of the test compound for 15 minutes. 1 ml of 2× LPA was added such that the final concentration was 5 μM and incubated for 5 minutes.
Media was discarded and washed with 1 ml of ice-cold 1× PBS.
250 μl of cell lysis buffer was added and incubated on ice for 30 minutes.
Samples were centrifuged and supernatant was maintained at −80° C. until analysis.
Samples were analyzed by Western Blotting using pAKT (S473) as the primary and anti-rabbit IgG-HRP as a secondary antibody.
Intensity of the bands was determined using ImageJ 1.42q (NIH, USA) and normalized to Actin (loading control). Data was plotted using GraphPad Prism (Version 5.02).

Data set [4] has as its target T1, PI3Kγ. Description: Assay 4: fMLP induced CD63 expression in basophils from human whole blood. The class given is cell-based. Details: endogenous in cells; host or cells: basophils in human whole blood. The note with it: n=1, read-out: IC50 for fMLP (PI3K γ), CD63 positive basophils. The method, then:
PI3K δ and γ signaling in basophils manifested by an alteration of anti-FcεR1 or fMLP induced CD63 expression is a useful pharmacodynamic marker determined using the Flow2CAST® kit (Buhlmann Laboratories, Switzerland). The test procedure involves the following steps: • Mix the anti-coagulated blood sample by inverting the venipuncture tube several times; • Prepare fresh and pyrogen-free 3.5 ml polypropylene or polystyrene tubes suitable for Flow Cytometry measurements; • Add 49 μl of patient's whole blood to each tube; • Add 1 μl of 10% DMSO (background) or test compound (10% DMSO) to the assigned tubes and mix gently. Incubate at room temperature for 15 minutes; • Pipet 50 μl of the Stimulation buffer (background) or anti-FcεRI Ab or fMLP to each tube; • Add 100 μl of Stimulation Buffer to each tube; • Mix gently. Add 20 μl Staining Reagent (1:1 mix of FITC-CD63 and PE-CCR3) to each tube; • Mix gently, cover the tubes and incubate for 15 minutes at 37° C. in a water bath. […]
Percent CD63 positive cells within the gated basophil population were determined in different treatment groups and normalized to vehicle control.

Some results are limits rather than exact numbers.

These results are taken from patent US20190202836A1, “SELECTIVE DUAL INHIBITORS OF PI3 DELTA AND GAMMA PROTEIN KINASES” (Rhizen Pharmaceuticals SA, priority 2014, published 2019).

PI3Kα, sequence (P42336 whole entry, canonical isoform): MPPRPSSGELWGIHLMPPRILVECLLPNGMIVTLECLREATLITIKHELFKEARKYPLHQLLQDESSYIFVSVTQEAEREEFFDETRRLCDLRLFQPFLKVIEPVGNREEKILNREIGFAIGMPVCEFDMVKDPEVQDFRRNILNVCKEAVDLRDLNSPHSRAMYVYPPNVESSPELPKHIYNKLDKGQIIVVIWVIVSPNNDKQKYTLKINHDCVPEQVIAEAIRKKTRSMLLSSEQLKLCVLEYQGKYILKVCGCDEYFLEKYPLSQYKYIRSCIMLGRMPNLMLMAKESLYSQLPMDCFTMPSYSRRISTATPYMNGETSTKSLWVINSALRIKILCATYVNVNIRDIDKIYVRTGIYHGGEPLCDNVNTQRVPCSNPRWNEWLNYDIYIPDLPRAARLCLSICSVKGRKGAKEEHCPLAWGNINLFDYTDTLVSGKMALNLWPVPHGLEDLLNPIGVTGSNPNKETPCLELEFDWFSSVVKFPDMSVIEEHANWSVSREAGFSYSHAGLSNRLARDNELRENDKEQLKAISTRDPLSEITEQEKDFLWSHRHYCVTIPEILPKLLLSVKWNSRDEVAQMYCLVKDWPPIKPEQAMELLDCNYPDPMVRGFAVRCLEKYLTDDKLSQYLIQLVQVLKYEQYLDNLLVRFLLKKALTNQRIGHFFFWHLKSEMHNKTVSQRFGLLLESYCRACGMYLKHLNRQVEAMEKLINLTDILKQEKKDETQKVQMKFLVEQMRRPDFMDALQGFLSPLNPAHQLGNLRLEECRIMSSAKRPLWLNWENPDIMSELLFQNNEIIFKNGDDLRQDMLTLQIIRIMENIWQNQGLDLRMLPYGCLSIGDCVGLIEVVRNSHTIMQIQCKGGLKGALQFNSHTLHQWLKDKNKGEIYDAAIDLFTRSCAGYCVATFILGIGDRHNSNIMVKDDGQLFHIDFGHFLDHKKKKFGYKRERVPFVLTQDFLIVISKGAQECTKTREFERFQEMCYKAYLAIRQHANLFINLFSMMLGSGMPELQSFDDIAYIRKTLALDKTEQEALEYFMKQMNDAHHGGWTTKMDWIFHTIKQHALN
PI3Kα, sequence (P27986 whole entry partner, canonical isoform): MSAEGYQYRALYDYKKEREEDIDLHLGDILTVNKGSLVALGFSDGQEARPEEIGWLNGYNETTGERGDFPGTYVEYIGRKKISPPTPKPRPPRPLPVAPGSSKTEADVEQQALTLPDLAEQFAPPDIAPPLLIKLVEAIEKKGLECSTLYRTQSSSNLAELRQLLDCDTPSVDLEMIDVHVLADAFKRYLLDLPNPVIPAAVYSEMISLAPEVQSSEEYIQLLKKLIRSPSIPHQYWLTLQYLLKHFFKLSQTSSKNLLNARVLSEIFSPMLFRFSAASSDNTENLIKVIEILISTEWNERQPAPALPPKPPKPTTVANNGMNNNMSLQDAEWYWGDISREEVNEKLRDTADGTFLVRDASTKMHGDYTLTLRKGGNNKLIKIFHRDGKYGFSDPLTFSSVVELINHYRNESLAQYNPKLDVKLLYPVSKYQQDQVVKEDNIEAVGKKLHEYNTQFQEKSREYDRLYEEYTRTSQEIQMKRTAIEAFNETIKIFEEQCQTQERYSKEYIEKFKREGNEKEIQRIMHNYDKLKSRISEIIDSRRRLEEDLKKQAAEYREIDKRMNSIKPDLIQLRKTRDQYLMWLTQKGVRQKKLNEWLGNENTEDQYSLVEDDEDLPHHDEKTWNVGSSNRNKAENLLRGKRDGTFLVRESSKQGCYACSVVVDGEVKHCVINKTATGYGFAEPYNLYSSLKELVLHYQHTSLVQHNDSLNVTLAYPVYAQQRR
T1 sequence (P48736 whole entry): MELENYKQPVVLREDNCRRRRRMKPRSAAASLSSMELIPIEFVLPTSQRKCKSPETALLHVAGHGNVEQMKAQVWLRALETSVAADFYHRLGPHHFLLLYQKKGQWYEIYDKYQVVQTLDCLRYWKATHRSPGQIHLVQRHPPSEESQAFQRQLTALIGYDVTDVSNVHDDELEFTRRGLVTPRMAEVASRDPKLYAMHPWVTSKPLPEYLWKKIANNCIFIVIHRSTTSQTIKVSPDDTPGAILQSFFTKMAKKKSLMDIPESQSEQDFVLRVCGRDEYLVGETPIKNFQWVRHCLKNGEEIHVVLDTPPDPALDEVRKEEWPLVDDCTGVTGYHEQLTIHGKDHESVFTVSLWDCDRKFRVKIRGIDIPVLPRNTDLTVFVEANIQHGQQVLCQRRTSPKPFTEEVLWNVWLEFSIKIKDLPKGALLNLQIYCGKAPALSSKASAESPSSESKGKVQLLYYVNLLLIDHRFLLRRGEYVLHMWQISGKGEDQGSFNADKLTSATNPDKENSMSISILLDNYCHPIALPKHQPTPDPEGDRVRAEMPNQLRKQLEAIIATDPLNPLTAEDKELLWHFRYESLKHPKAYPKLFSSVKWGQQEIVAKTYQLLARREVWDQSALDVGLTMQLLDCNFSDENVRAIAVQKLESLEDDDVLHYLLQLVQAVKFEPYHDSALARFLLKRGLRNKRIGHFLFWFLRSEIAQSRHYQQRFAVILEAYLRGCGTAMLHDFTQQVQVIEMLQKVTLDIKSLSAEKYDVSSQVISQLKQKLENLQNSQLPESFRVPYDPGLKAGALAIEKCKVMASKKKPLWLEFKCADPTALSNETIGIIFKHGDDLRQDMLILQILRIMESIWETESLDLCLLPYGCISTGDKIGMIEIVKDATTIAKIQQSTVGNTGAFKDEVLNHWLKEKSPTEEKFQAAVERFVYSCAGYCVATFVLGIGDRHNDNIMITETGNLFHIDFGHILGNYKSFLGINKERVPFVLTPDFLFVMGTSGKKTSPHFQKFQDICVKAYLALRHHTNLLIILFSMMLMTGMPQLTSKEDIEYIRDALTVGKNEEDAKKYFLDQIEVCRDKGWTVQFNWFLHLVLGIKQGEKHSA
T2 sequence (Q8BTI9 whole entry): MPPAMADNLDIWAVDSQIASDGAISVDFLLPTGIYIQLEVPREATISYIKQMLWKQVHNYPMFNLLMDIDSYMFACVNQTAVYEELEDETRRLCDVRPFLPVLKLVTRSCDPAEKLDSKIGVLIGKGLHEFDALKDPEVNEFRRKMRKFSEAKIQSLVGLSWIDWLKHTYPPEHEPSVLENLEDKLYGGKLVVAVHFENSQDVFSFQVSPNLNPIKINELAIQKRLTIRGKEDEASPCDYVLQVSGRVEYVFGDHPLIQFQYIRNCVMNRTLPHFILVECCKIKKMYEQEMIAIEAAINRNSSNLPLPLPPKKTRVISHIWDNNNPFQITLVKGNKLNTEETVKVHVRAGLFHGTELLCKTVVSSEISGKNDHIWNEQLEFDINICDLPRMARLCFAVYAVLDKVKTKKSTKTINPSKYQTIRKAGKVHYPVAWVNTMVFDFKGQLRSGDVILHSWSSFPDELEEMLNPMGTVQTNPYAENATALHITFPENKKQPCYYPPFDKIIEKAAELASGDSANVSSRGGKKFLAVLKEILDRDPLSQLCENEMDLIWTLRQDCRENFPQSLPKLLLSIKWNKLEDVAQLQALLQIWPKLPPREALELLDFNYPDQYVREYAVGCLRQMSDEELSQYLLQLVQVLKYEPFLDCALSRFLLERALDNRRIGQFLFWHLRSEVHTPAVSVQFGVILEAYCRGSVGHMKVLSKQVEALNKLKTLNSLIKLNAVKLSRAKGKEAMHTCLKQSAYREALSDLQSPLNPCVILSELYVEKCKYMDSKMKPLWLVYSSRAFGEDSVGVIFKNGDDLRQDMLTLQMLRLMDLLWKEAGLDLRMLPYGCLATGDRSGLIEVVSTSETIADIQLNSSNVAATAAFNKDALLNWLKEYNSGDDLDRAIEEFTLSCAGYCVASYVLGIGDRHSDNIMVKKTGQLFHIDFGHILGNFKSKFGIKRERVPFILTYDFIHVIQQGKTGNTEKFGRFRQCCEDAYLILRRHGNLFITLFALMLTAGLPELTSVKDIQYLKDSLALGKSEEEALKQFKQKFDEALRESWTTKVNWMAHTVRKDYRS
T2 sequence (P26450 whole entry partner): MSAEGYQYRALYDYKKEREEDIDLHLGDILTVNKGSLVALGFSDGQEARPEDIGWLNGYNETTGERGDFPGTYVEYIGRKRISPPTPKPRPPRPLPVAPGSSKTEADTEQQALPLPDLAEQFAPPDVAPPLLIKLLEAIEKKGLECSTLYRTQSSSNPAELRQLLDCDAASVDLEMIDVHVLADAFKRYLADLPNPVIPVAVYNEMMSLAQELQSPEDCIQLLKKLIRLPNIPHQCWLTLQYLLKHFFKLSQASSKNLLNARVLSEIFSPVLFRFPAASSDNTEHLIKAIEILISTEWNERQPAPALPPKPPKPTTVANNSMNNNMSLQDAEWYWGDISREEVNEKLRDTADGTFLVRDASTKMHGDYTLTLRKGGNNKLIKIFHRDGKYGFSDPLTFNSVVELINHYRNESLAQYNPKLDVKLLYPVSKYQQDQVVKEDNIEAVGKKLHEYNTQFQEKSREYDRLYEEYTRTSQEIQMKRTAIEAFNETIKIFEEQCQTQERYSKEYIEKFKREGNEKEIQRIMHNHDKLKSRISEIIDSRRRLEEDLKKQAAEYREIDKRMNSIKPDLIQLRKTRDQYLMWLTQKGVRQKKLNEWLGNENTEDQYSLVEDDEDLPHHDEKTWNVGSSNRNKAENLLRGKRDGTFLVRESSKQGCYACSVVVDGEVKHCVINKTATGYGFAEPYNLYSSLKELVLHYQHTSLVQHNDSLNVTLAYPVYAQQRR

As for `COc1ccc(-c2nn([C@@H](C)c3oc4cccc(F)c4c(=O)c3-c3cccc(F)c3)c3ncnc(N)c23)cc1NS(C)(=O)=O` [Compound A1, (S)—N-(5-(4-amino-1-(1-(5-fluoro-3-(3-fluorophenyl)-4-oxo-4H-chromen-2-yl)ethyl)-1H-pyrazolo[3,4-d]pyrimidin-3-yl)-2-methoxyphenyl)methanesulfonamide], the “Metabolic stability in liver microsomes (percent parent compound remaining), Dog” value in data set [1] was determined as 83.5%. In data set [2], this compound yielded an exposure AUC(0-t) of 7.49 µM·h. The compound also returned a Cmax in data set [2] of 3.78 µM. Besides, in data set [2], the Tmax amounted to 30 min. The half-life in data set [2] was 87 min. The same compound gave an inhibition at 10 µM against PI3Kα of 23%. In addition, the IC50 at PI3Kα (HTRF enzyme assay) is above 10000 nM; on PI3Kγ [3], 48.7 nM; on PI3K beta it was 1320 nM; on PI3Kγ [4] it was below 70 nM. Moreover, the “Fold-Selectivity PI3Kα” value on PI3Kα (selectivity profile, enzyme IC50) is given as above 329 fold.
